Test results published in a melting point compilation (Tetko et al.).

Row | SMILES | melting point [°C]
1 | CN(C)C(=N)N(C)C | -30
2 | Cc1ccc2cccc(C)c2c1 | -13.9
3 | O=C1c2ccc([N+](=O)[O-])cc2C(=O)N1CCCBr | 104 to 107
4 | CC(C)CC(C)(N)P(=O)(O)O (stereo not given) | 234 to 238
5 | C#CC1(O)CCC2C3CCc4cc(O)ccc4C3C(OC)CC21C (stereo not given) | 280
6 | CNC(=O)Oc1cccc2ccccc12 | 142
7 | Oc1ccc(C2CCCCC2)cc1 | 133
8 | OCC1OC(O)C(O)C(O)C1O (stereo not given) | 170
9 | O=C1C=Cc2ccccc2C1=O | 136 to 141
10 | CNc1c(C=O)c(=O)n(C)c(=O)n1C | 203
11 | N[C@@H](CCCCNC(=O)OCc1ccccc1)C(=O)O | 259
12 | O=[N+]([O-])c1c(F)ccc(Cl)c1F | 47
13 | C1=CCCCC=C1 | -110
14 | Cc1nn(C)c(Cl)c1[N+](=O)[O-] | 75 to 77
15 | N#CO | -86
16 | CCF | -143
17 | Nc1ccc(N)nc1 | 110
18 | O=C(O)C(CBr)CBr | 100
19 | CCC(C)CCC(C)O (stereo not given) | -61
20 | O=C(O)C1CC2CC1CCC2O (stereo not given) | 160 to 169

Row | SMILES | melting point [°C]
21 | CCOC(=O)CC(CC(=O)OCC)(c1cc(C)c(O)c(C)c1)c1cc(C)c(O)c(C)c1 | 178
22 | COc1cc(O)c(C=O)c(OC)c1 | 70
23 | N#CC(C#N)=Cc1ccc(Cl)cc1 | 91
24 | CCOC(=O)c1c[nH]cc1C | 74
25 | CCNCCO | -6
26 | Nc1ncncn1 | 219 to 224
27 | O=C(OCC1CCC2OC2C1)C1CCC2OC2C1 (stereo not given) | -37
28 | N#Cc1cc(S(=O)(=O)Cl)ccc1F | 69
29 | O=C(Nc1ccc([N+](=O)[O-])cc1Cl)C1(F)C(F)(F)C(F)(F)C(F)(F)C(F)(F)C1(F)F | 93
30 | COC(=O)CCC(C)C1CCC2C3C(OC(C)=O)CC4CC(=O)CCC4(C)C3CC(=O)C12C (stereo not given) | 165 to 167
31 | CC1=CC(=O)C(C)=CC1=O | 123 to 126
32 | CC(CCl)(CCl)C(=O)O | 64 to 66
33 | CC1(C)CCc2cc(S(=O)(=O)Cl)ccc2O1 | 92 to 94
34 | Oc1ccc(Cl)cc1Cc1cc(Cl)ccc1O | 178
35 | Cc1cc(F)ccc1CC#N | 26
36 | COc1cc(C)cc(OC)c1OC | 36
37 | c1ccc2c(C3CCNCC3)c[nH]c2c1 | 222 to 223
38 | Cc1nsc(N)n1 | 202 to 209
39 | ClC(Cl)(Br)CBr | -26
40 | CCOC(=O)C(/C=C1\C(=O)C2(C)CCC1C2(C)C)(/C=C1\C(=O)C2(C)CCC1C2(C)C)CC(C)C (stereo not given) | 156

Row | SMILES | melting point [°C]
41 | O=C(O)CC(O)(C(F)(F)F)C(F)(F)F | 87
42 | N#CCCN1CCCCC1 | -6.8
43 | CC(C)(C)OC(=O)N1CCC(N)CC1 | 46
44 | Brc1ccc2c(c1)OCOC2 | 49 to 51
45 | O=C(O)C1CC=CCC1 (stereo not given) | 17
46 | Nc1cc(Br)cnc1N | 160 to 165
47 | O=[N+]([O-])c1ccc(Cl)c(C(F)(F)F)c1 | 22
48 | CCN(CC)CCNC(=O)c1cc(S(C)(=O)=O)ccc1OC | 124
49 | CCC(C)(C)C(C)(C)O | -1
50 | N#Cc1[nH]cnc2ncnc1-2 | 188
51 | Brc1cc(Br)ncn1 | 51
52 | CCCCCCCCCCCCC#CC#CCCCCCCCCC(=O)O | 64
53 | COc1cc2c(c(O)c1OC)CNCC2 | 188
54 | O=Cc1ccc(SC2CCCCC2)c([N+](=O)[O-])c1 | 94 to 96
55 | C1CCCNCCC1 | 29
56 | Nc1nc(F)cc(C(F)(F)F)c1F | 67
57 | OC1CCC(O)CC1 (stereo not given) | 143
58 | C=C1CC1CC(N)C(=O)O (stereo not given) | 282
59 | Cn1c(N)cc(=O)[nH]c1=O | 300

Next, values leading:

Row | melting point [°C] | SMILES
60 | 129 to 131 | Cc1cccc(Cn2nc(C(C)(C)C)cc2-c2nnc(S)o2)c1
61 | 182 | O=C1C(c2ccccn2)=[N+]([O-])c2ccccc21
62 | 175 to 176 | CCOC(=O)c1cnc2n(c1=O)CCS2
63 | 141 | c1ccc(P(CCP(c2ccccc2)c2ccccc2)c2ccccc2)cc1
64 | 139 | Cc1ccc(C(=O)C=CC(=O)O)cc1
65 | 44 | CN(C)C(=O)c1ccccc1
66 | 112 to 115 | OCc1cccc(CO)n1
67 | 83 to 93 | CCCCc1ccc(/C=N/c2ccc(C(C)=O)cc2)cc1
68 | 276 | COc1ccc(/N=N/c2c(N)nn3c(C)cc(=O)[nH]c23)cc1
69 | 168 to 170 | O=C(O)c1ccc(OC2CCOCC2)nc1
70 | 105 | COC(=O)c1cc2ccccc2c(O)c1C(=O)OC
71 | 156 | O=C(O)COc1ccc2ccccc2c1
72 | 233 | c1ccc(N=Nc2ccc(/N=N/c3ccc(N=Nc4ccccc4)cc3)cc2)cc1
73 | 162 | O=C(/C(=N/Nc1ccc(Cl)cc1Cl)S(=O)(=O)c1ccccc1)c1cccc2ccccc12
74 | 44 | CCCCCCOc1ccc(N)cc1
75 | 28.5 | Sc1ccccc1S
76 | 148 | O=Cc1ccc(-c2ccc(C=O)cc2)cc1
77 | < 20 | Brc1cccc(Oc2ccc(Br)cc2Br)c1
78 | 74 | O=C(CC(=O)C(F)(F)F)c1ccc2ccccc2c1
79 | 144 to 148 | O=C(O)CCNC(=O)OCC1c2ccccc2-c2ccccc21
80 | 170 to 172 | NC(=O)c1cccc(Cl)c1Cl
81 | 160 | Cc1ccc(N(CCO)CCO)cc1N=Nc1ccc([N+](=O)[O-])cc1
82 | 212 to 216 | O=C(O)c1sc(-c2ccccc2)nc1-c1ccccc1
83 | 190 | Nc1cccc2c(N)cccc12
84 | 167 | O=C(O)c1cccc(-c2ccccc2)c1
85 | 142 | COc1cc(C(=O)c2ccc(Cl)cc2)c([N+](=O)[O-])cc1OC

Row | melting point [°C] | SMILES
86 | 170 to 171 | O=C(O)c1cccc2c1OCC2
87 | 146 | CCc1cccc2c3c([nH]c12)C(CC)(CC(=O)O)OCC3 (stereo not given)
88 | 79 to 80 | O=C(Cl)c1cccnc1Oc1ccc(Cl)cc1
89 | 132 to 134 | COc1cc2c(cc1OC)C(c1ccccc1[N+](=O)[O-])N(C(C)=O)CC2 (stereo not given)
90 | 133 | COC(=O)c1cc(O)cc(Br)c1
91 | 114 | CCOC(=O)Nc1ccc(NCc2ccc(F)cc2)nc1N
92 | 206 | O=C(O)c1cnc2ccccc2n1
93 | 151 to 153 | COc1ccccc1NC(=S)NN
94 | 188 | O=C(NC(Cc1ccsc1)C(=O)O)OCC1c2ccccc2-c2ccccc21 (stereo not given)
95 | 158 | COc1ccc(C=CC(=O)Oc2ccc(C=CC(=O)c3ccccc3)cc2)cc1
96 | 8.3 | O=[N+]([O-])c1cc(Cl)ccc1F
97 | 78 | O=C(CC(=O)c1ccccc1)c1ccccc1
98 | 78 | ON=C(c1ccccc1)c1ccc(O)cc1
99 | 104 to 109 | O=Cc1cccc(O)c1O
100 | 153 to 155 | NNC(=O)c1cnn(-c2ccccc2)c1C(F)(F)F
101 | 50 | CSc1ccc(N=C=S)cc1
102 | 169 | O=C(O)Cc1c[nH]c2ccccc12
103 | 47 | COC(=O)c1ccccc1OCc1ccccc1
104 | 118 | CC1(C(=O)O)CCC(CCc2ccccc2)C1(C)C (stereo not given)
105 | -8 | FC(F)(F)c1ccc(I)cc1
106 | 190 to 193 | COc1ccc(NC(=O)C=CC(=O)O)cc1
107 | 117 to 119 | CC(=O)c1ccc(O)c(O)c1
108 | 186 | NNC(=O)c1cc2ccccc2s1
109 | 146 | CCOC(=O)CC=C(c1ccc(OC)cc1)C(C)(C)C(=O)OCC
110 | 46 to 47 | COC(=O)c1cccc(CN2CCOCC2)c1
111 | 253 to 255 | O=C1Nc2ccccc2C=NC2CCCCC2N=Cc2ccccc2NC(=O)O1 (stereo not given)

Row | melting point [°C] | SMILES
112 | 186 | Nc1ccc(/C(=C\c2ccccc2N)C(=O)O)cc1
113 | 172 to 173 | c1ccc(/N=N/c2ccc(-c3ccc(NNc4ccccc4)cc3)cc2)cc1
114 | 104 | Cc1ccc(C(c2ccc(C)o2)c2cc(I)ccc2O)o1
115 | 222 | N#CC1C(=S)NC2(C(=O)Nc3ccccc32)C2=C1CCCC2 (stereo not given)
116 | 56 to 59 | Cc1nnc(-c2cccc(S(=O)(=O)Cl)c2)o1
117 | 118 | COC(=O)c1ccc2c(c1)CC1(CCC(c3ccc(C(C)(C)C)cc3)CC1)C2 (stereo not given)
118 | 127 to 130 | NC(=S)c1ccc(Cl)cc1
119 | 278 | N#Cc1ccc(C(Cl)C(Cl)c2ccc(C(Cl)C(Cl)c3ccc(C#N)cc3[N+](=O)[O-])cc2)c([N+](=O)[O-])c1 (stereo not given)
120 | 70 to 73 | CCCCSc1sc(C(=O)OCC)c2c1C(=O)CCC2
121 | 160 | NC(=O)c1cc(Cl)ccc1Cl
122 | 217 | O=C(Oc1ccc(Cl)cc1Cl)c1ccc(C(=O)Oc2ccc(Cl)cc2Cl)cc1
123 | 138 to 139 | O=C(CBr)c1csc2ccccc12
124 | 215 to 216 | O=C(O)C=Cc1ccccc1Br
125 | 140 | O=Cc1cccc2c1CCOC2=O
126 | 200 to 202 | COc1ccccc1N/N=C(\C#N)c1nc2ccccc2n1C
127 | 173 | O=C1c2ccccc2CC2c3ccccc3CCN12 (stereo not given)
128 | 112 | COC(=O)C1(S(=O)(=O)c2ccc(Br)cc2)CCCCC1
129 | 150 to 154 | Cc1nc(-c2ccc3c(c2)CCO3)sc1C(=O)Cl
130 | 84 | Cc1sc(-c2ccncc2)nc1-c1ccccc1
131 | 129 to 131 | OCc1ccc2[nH]cnc2c1
132 | 134 | N#CCc1csc2ccc(Cl)cc12
133 | 233 to 235 | O=C(O)c1cc2cnccc2nc1C(F)(F)F
134 | 102 to 103 | OCc1cn2ccccc2n1
135 | 171 to 173 | CCCc1c(C)nc(NC(=O)NS(=O)(=O)c2cccs2)nc1Cl
